Data published in US11077100B2, “Tetrahydroquinoline derivatives as P2X7 receptor antagonists” (RaQualia Pharma Inc., priority 2017, dated 2021).

How the values were obtained:
[1] = biological target: rat P2X7 (Rattus norvegicus (Rat), UniProt Q64663); assay: Rat P2X7 functional assay (Ca2+ influx, Fluo-4, FDSS); type: cell-based; conditions: HEK293 cells stably expressing rat P2X7; BzATP final 10 microM; 7-point dose-response; read-out: Antagonistic activities with respect to the rat P2X7 receptor (IC50)
Sequence of rat P2X7 (Q64663 whole entry): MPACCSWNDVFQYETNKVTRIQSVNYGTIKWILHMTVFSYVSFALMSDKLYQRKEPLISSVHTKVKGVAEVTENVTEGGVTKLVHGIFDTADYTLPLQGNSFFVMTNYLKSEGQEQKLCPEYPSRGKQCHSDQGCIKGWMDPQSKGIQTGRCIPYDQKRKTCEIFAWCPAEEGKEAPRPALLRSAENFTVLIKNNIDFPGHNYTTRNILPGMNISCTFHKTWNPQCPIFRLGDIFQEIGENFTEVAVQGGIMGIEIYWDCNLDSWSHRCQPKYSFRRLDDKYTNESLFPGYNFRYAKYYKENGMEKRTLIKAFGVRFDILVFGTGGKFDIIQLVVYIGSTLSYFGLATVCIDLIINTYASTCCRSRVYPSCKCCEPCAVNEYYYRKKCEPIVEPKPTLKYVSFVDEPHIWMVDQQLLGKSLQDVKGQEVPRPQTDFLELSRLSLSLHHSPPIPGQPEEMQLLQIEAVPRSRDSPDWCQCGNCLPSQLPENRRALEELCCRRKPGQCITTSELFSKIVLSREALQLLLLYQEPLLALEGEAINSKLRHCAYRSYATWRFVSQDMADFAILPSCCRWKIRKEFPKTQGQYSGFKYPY
Method: Rat P2X7 Functional Assay
The functional activity of compounds was determined by measuring changes in intracellular calcium concentration using a Ca^2+-sensitive fluorescent dye, Fluo-4 (Molecular Probes). The changes in fluorescent signal were monitored by the cell imaging technology by Hamamatsu Photonics's Functional Drug Screening System (FDSS). Increases in intracellular Ca^2+ concentration were readily detected upon activation with BzATP.
HEK293 cells stably expressing rat P2X7 (GenBank accession number NM_019256) were grown in Corning CellBIND cell culture flasks, in a 5% CO2 humidified incubator to about 80% confluence. Media composition consisted of Dulbecco's Modified Eagle Medium (high glucose), 10% fetal bovine serum ([…]), 100 units/[…] Penicillin, 100 microg/mL Streptomycin and 250 microg/mL Geneticine.
1. […] Plate-out HEK293-rat P2X7 cells (40 microL medium containing 5,000 cells per well) into poly-D-lysine coated 384-well plates (BD Falcon) at 24 h prior to assay.
2. Incubate at 37° C. in 5% CO2.
3. Incubate the plate at 37° C. in 5% CO2 for 1 h.
5. Test compounds were prepared at 100× the test concentration in DMSO by serial dilution with Biomek-FX liquid handling instrument. 33× diluted compound solutions in assay buffer were prepared in intermediate compound plate with Biomek-NX liquid handling instrument. A further 3× dilution occurred in below steps 6 and 7.
6. Add 20 microL of 33× diluted compound solutions into each well and leave the plate for 10 min under the dark at room temperature.
7. Measure activity by FDSS as follows: • Set the assay plate on the stacker of FDSS. • Start the detection of fluorescence intensity at 540 nm by 480 nm exicitation. • After 30 seconds, add 20 microL of assay buffer containing 30 microM BzATP (final 10 microM).
IC50 values for compounds of the present invention were determined from 7-point dose-response studies. Curves were generated using the average of duplicate wells for each data point. Finally, the IC50 values are calculated with the best-fit dose curve determined by XLfit (ID Business Solutions Ltd.).

[2] = biological target: human P2X7 (Homo sapiens (Human), UniProt Q99572); assay: Human P2X7 functional assay (Ca2+ influx, Fluo-4, FDSS); type: cell-based; conditions: antagonistic activity with respect to the human P2X7 receptor; BzATP final concentration 80 microM
Sequence of human P2X7 (Q99572 whole entry): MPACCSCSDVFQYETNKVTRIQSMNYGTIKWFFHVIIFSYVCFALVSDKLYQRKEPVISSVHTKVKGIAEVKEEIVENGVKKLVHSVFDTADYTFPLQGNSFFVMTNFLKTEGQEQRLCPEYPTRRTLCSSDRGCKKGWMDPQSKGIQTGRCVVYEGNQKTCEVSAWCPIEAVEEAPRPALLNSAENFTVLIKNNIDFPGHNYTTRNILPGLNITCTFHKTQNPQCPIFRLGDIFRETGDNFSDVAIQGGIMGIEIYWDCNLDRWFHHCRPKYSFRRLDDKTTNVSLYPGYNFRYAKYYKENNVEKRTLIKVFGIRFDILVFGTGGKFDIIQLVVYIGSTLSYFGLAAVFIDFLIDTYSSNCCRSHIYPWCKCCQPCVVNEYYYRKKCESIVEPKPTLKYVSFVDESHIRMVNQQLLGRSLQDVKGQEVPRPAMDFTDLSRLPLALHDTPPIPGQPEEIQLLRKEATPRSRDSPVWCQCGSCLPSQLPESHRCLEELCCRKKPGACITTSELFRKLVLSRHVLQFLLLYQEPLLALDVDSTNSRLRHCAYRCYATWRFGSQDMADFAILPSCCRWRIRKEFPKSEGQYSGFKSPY
Summary of the method: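 HEK293 cells stably expressing C-terminally FLAG-tagged human P2X7, loaded with Fluo-4. Compounds were preincubated for 10 min at room temperature, then 80 μM BzATP (final) was added and Ca2+ fluorescence read at 540 nm (480 nm excitation) by FDSS. IC50 values come from 7-point curves, duplicate wells.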

Work on O=C(NCc1c(Cl)cc(Cl)cc1CO)[C@@]1(F)CC[C@@H](O)c2ncccc21 [Example 130, (5R,8R)-N-(2,4-dichloro-6-(hydroxymethyl)benzyl)-5-fluoro-8-hydroxy-5,6,7,8-tetrahydroquinoline-5-carboxamide] yielded an IC50 [1] of less than 1000 nM and an IC50 [2] of less than 50 nM.
O=C(NCc1c(F)cc(Cl)cc1F)[C@]1(F)CC[C@H](O)c2ncccc21 [Example 184, (5S,8S)-N-(4-chloro-2,6-difluorobenzyl)-5-fluoro-8-hydroxy-5,6,7,8-tetrahydroquinoline-5-carboxamide] was tested, and the IC50 [1] was less than 1000 nM and the IC50 [2] was less than 50 nM.
Work on O=C(NCc1ccc(F)cc1Cl)[C@]1(F)CC[C@@](O)(CF)c2ncccc21 [Example 286, (5S,8S)-N-(2-chloro-4-fluorobenzyl)-5-fluoro-8-(fluoromethyl)-8-hydroxy-5,6,7,8-tetrahydroquinoline-5-carboxamide] yielded an IC50 [1] of less than 1000 nM and an IC50 [2] of less than 50 nM.
With O=C(NCc1ccc(Cl)cc1Cl)[C@@]1(F)CC[C@@H](O)c2ncccc21 [Example 132, (5R,8R)-N-(2,4-dichlorobenzyl)-5-fluoro-8-hydroxy-5,6,7,8-tetrahydroquinoline-5-carboxamide] the IC50 [1] was less than 1000 nM and the IC50 [2] was less than 50 nM.
Compound O=C(NCc1c(Cl)cccc1Cl)[C@]1(F)CC[C@H](O)c2ncccc21 [Example 139, (5S,8S)-N-(2,6-dichlorobenzyl)-5-fluoro-8-hydroxy-5,6,7,8-tetrahydroquinoline-5-carboxamide] has an IC50 [1] of less than 1000 nM and an IC50 [2] of less than 50 nM.
With C[C@@]1(O)CC[C@@](F)(C(=O)NCc2ccc(F)cc2Cl)c2cccnc21 [Example 260, (5S,8R)-N-(2-chloro-4-fluorobenzyl)-5-fluoro-8-hydroxy-8-methyl-5,6,7,8-tetrahydroquinoline-5-carboxamide] the IC50 [1] was less than 1000 nM and the IC50 [2] was 301 to 1000 nM.
COCC1(O)CCC(F)(C(=O)NCc2c(C)cc(Cl)cc2Cl)c2cccnc21 (centres unmarked) [Example 39, N-(2,4-dichloro-6-methylbenzyl)-5-fluoro-8-hydroxy-8-(methoxymethyl)-5,6,7,8-tetrahydro-quinoline-5-carboxamide] gave an IC50 [1] of less than 1000 nM and an IC50 [2] of less than 50 nM.
O=C1CC[C@@](F)(C(=O)NCc2cccc(C(F)(F)F)c2Cl)c2cccnc21 [Example 247, (S)-N-(2-chloro-3-(trifluoromethyl)benzyl)-5-fluoro-8-oxo-5,6,7,8-tetrahydroquinoline-5-carboxamide] gave an IC50 [1] of less than 1000 nM and an IC50 [2] of less than 50 nM.
In the case of O=C(NCc1ccc(Cl)cc1Cl)[C@]1(F)CC[C@H](O)c2c1ccc[n+]2[O-] [Example 245, (5S,8S)-5-((2,4-dichlorobenzyl)carbamoyl)-5-fluoro-8-hydroxy-5,6,7,8-tetrahydroquinoline 1-oxide], the IC50 [1] is reported as less than 1000 nM and the IC50 [2] is reported as less than 50 nM.
With Cc1cccc(Cl)c1CNC(=O)[C@]1(F)CC[C@@H](O)c2ncccc21 [Example 122, (5S,8R)-N-(2-chloro-6-methylbenzyl)-5-fluoro-8-hydroxy-5,6,7,8,- tetrahydroquinoline-5-carboxamide] the IC50 [1] was less than 1000 nM and the IC50 [2] was 50 to 100 nM.
C[C@H](NC(=O)[C@]1(F)CC[C@H](O)c2ncccc21)c1ccc(Cl)c(Cl)c1Cl [Example 168, (5S,8S)-5-fluoro-8-hydroxy-N-((S)-1-(2,3,4-trichlorophenyl)ethyl)-5,6,7,8-tetrahydroquinoline-5-carboxamide] showed an IC50 [1] of less than 1000 nM and an IC50 [2] of 101 to 300 nM.
Compound O=C(NCc1c(F)cc(F)cc1Cl)[C@]1(F)CC[C@H](O)c2ncccc21 [Example 176, (5S,8S)-N-(2-chloro-4,6-difluorobenzyl)-5-fluoro-8-hydroxy-5,6,7,8-tetrahydroquinoline-5-carboxamide] has an IC50 [1] of less than 1000 nM and an IC50 [2] of less than 50 nM.
With O=C(NCc1cccc(C(F)(F)F)c1Cl)[C@]1(F)CC[C@@H](O)c2ncccc21 [Example 102, (5S,8R)-N-(2-chloro-3-(trifluoromethyl)benzyl)-5-fluoro-8-hydroxy-5,6,7,8-tetrahydroquinoline-5-carboxamide] the IC50 [1] was less than 1000 nM and the IC50 [2] was less than 50 nM.
For O=C(NCc1c(Cl)cccc1C(F)(F)F)[C@]1(F)CC[C@H](O)c2ncccc21 [Example 179, (5S,8S)-N-(2-chloro-6-(trifluoromethyl)benzyl)-5-fluoro-8-hydroxy-5,6,7,8-tetrahydroquinoline-5-carboxamide], the IC50 [1] was less than 1000 nM and the IC50 [2] was less than 50 nM.
Compound O=C(NCc1ccc(F)cc1Cl)[C@@H]1CC[C@@H](O)c2ncccc21 [Example 89, (5R,8R)-N-(2-chloro-4-fluorobenzyl)-8-hydroxy-5,6,7,8-tetrahydroquinoline-5-carboxamide] has an IC50 [1] of less than 1000 nM and an IC50 [2] of 101 to 300 nM.
O=C(NCc1cccc(Cl)c1Cl)C1(F)CCC(O)(CO)c2ncccc21 (centres unmarked) [Example 36, N-(2,3-dichlorobenzyl)-5-fluoro-8-hy-droxy-8-(hydroxymethyl)-5,6,7,8-tetra-hydroquinoline-5-carboxamide] was tested, and the IC50 [1] was less than 1000 nM and the IC50 [2] was less than 50 nM.
O=C(NCc1c(Cl)cc(C(F)(F)F)cc1Cl)[C@]1(F)CC[C@H](O)c2ncccc21 [Example 148, (5S,8S)-N-(2,6-dichloro-4-(trifluoromethyl)benzyl)-5-fluoro-8-hydroxy-5,6,7,8-tetrahydroquinoline-5-carboxamide] showed an IC50 [1] of less than 1000 nM and an IC50 [2] of less than 50 nM.
NCC1(O)CCC(F)(C(=O)NCc2cccc(C(F)(F)F)c2Cl)c2cccnc21 (centres unmarked) [Example 48, 8-(aminomethyl)-N-(2-chloro-3-(trifluoro-methyl)benzyl)-5-fluoro-8-hy-droxy-5,6,7,8-tetra-hydroquinoline-5-carboxamide] gave an IC50 [1] of less than 1000 nM and an IC50 [2] of less than 50 nM.
O=C(NCc1ccc(Cl)c(F)c1Cl)[C@]1(F)CC[C@@](O)(CO)c2ncccc21 [Example 319, (5S,8S)-N-(2,4-dichloro-3-fluorobenzyl)-5-fluoro-8-hydroxy-8-(hydroxymethyl)-5,6,7,8-tetrahydroquinoline-5-carboxamide] showed an IC50 [1] of less than 1000 nM and an IC50 [2] of less than 50 nM.
With O=C(NCc1ccc(Cl)cc1Cl)[C@]1(F)CC[C@H](O)c2ncccc21 [Example 133, (5S,8S)—N-(2,4-dichlorobenzyl)-5-fluoro-8-hydroxy-5,6,7,8-tetrahydroquinoline-5-carb oxamide] the IC50 [1] was less than 1000 nM and the IC50 [2] was less than 50 nM.
Work on C[C@]1(O)CC[C@@](F)(C(=O)NCc2ccc(Cl)c(F)c2F)c2cccnc21 [Example 267, (5S,8S)-N-(4-chloro-2,3-difluorobenzyl)-5-fluoro-8-hydroxy-8-methyl-5,6,7,8-tetrahydroquinoline-5-carboxamide] yielded an IC50 [1] of less than 1000 nM.
For C[C@]1(O)CC[C@@](F)(C(=O)NC2CC2c2ccc(Cl)cc2Cl)c2cccnc21 (stereo partly drawn) [Example 273, (5S,8S)-N-((trans)-2-(2,4-dichlorophenyl)cyclopropyl)-5-fluoro-8-hydroxy-8-methyl-5,6,7,8-tetrahydroquinoline-5-carboxamide], the IC50 [1] was less than 1000 nM.
C[C@]1(O)CC[C@@](F)(C(=O)NCc2c(F)cc(F)cc2Cl)c2cccnc21 [Example 266, (5S,8S)-N-(2-chloro-4,6-difluorobenzyl)-5-fluoro-8-hydroxy-8-methyl-5,6,7,8-tetrahydroquinoline-5-carboxamide] gave an IC50 [1] of less than 1000 nM.
Cc1cc(Cl)cc(Cl)c1CNC(=O)[C@@]1(F)CC[C@@H](O)c2ncccc21 [Example 126, (5R,8R)-N-(2,4-dichloro-6-methylbenzyl)-5-fluoro-8-hydroxy-5,6,7,8-tetrahydroquinoline-5-carboxamide] showed an IC50 [1] of less than 1000 nM.
Compound O=C(NCc1c(Cl)cc(Cl)cc1CO)C1CCC(O)c2ncccc21 (centres unmarked) [Example 9, N-(2,4-dichloro-6-(hydroxy-methyl)benzyl)-8-hydroxy-5,6,7,8-tetrahydroquinoline-carboxamide] has an IC50 [1] of less than 1000 nM.
O=C(NCc1c(F)cc(Cl)cc1Cl)[C@]1(F)CC[C@H](O)c2ncccc21 [Example 152, (5S,8S)-N-(2,4-dichloro-6-fluorobenzyl)-5-fluoro-8-hydroxy-5,6,7,8-tetrahydroquinoline-5-carboxamide] was tested, and the IC50 [1] was less than 1000 nM.
For Cc1cccc(Cl)c1CNC(=O)[C@]1(F)CC[C@H](O)c2ncccc21 [Example 161, (5S,8S)-N-(2-chloro-6-methylbenzyl)-5-fluoro-8-hydroxy-5,6,7,8-tetrahydroquinoline-5-carboxamide], the IC50 [1] was less than 1000 nM.
